Experimental data as given in ChEMBL document CHEMBL1146307, “Exploring the active site of phenylethanolamine N-methyltransferase with 1,2,3,4-tetrahydrobenz[h]isoquinoline inhibitors” (Bioorg Med Chem, 2007).

Columns and labels:
[1] = Selectivity for human PNMT over Sprague-Dawley rat adrenergic alpha-2 receptor
[2] = target: T1, Adrenergic receptor alpha-2 (Rattus norvegicus, UniProt P22086+P19328+P22909); assay: Displacement of [3H]clonidine from adrenergic alpha2 receptor in Sprague-Dawley rat cortex membrane; assay type: cell membranes
T1 sequence (P22086 whole entry): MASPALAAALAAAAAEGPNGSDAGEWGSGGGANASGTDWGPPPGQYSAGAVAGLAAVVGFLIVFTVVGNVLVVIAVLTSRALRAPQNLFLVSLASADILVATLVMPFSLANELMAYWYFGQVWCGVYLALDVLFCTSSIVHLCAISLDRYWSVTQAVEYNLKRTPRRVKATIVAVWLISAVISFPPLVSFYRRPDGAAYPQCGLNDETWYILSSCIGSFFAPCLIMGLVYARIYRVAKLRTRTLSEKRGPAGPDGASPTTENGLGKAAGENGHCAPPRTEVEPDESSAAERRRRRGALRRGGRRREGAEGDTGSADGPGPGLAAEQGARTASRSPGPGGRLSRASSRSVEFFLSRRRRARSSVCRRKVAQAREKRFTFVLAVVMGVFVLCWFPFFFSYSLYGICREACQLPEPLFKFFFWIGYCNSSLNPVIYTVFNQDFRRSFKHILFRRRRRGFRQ
T1 sequence (P19328 whole entry): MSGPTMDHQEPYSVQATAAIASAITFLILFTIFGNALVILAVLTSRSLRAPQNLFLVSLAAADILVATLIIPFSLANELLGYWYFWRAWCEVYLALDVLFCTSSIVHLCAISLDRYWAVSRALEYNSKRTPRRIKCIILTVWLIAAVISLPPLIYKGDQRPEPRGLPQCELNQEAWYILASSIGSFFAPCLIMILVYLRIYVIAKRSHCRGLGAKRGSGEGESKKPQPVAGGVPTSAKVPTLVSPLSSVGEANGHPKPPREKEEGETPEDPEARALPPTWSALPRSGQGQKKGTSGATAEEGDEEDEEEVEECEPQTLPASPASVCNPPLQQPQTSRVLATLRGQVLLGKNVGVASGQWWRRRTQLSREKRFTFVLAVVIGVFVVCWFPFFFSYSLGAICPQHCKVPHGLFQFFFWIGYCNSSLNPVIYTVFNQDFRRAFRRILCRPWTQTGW
T1 sequence (P22909 whole entry): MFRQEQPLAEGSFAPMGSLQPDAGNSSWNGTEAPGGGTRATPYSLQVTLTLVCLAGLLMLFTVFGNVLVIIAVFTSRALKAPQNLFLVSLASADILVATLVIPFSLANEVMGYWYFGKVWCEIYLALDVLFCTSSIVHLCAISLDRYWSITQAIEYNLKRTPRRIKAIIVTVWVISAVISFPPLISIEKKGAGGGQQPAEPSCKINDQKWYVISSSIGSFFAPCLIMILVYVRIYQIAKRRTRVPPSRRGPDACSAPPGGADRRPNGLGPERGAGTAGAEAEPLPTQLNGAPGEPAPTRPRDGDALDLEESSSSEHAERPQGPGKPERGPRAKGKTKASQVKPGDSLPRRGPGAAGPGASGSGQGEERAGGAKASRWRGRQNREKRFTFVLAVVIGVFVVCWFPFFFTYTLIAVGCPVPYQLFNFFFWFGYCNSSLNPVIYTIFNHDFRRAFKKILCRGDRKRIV

| SMILES | Ratio Ki [1] | Ki [2] [nM] |
| --- | --- | --- |
| c1ccc2c(c1)CCNC2 | 0.06 |  |
| Brc1cccc2c3c(ccc12)CCNC3 |  | 100 |
| COc1cccc2c3c(ccc12)CCNC3 |  | 160 |
| N#Cc1cccc2c3c(ccc12)CCNC3 |  | 590 |
| Oc1cccc2c3c(ccc12)CCNC3 |  | 11 |
| O=[N+]([O-])c1cccc2c3c(ccc12)CCNC3 |  | 410 |
| c1ccc2c3c(ccc2c1)CCNC3 |  | 16 |
| NS(=O)(=O)c1cccc2c3c(ccc12)CCNC3 |  | 2900 |
